US20260022142A1, “MACROCYCLIC IMMUNOMODULATORS” (Bristol-Myers Squibb Company, priority 2022, published 2026)
Numbered stars: 1 amine (or outer) side, 2 acyl side, 3 side chain; on linkers, the order of the positions; unused ones are H or OH. Bridge positions count the residues as written; N and C are the ends. Square brackets hold non-standard residues; d marks the D form. Peptide text beside a SMILES is read from it. * marks the point of attachment. ξ: configuration not given here. Phe(3-CF3) = N[C@@H](Cc1cccc(C(F)(F)F)c1)C(=O)O; Tyr(3,5-F2) = N[C@@H](Cc1cc(F)c(O)c(F)c1)C(=O)O; Phe(4-CONH2) = NC(=O)c1ccc(C[C@H](N)C(=O)O)cc1; Phe(4-COOH) = N[C@@H](Cc1ccc(C(=O)O)cc1)C(=O)O; Bip = N[C@@H](Cc1ccc(-c2ccccc2)cc1)C(=O)O; Tyr(3-F) = N[C@@H](Cc1ccc(O)c(F)c1)C(=O)O; Phe(3-Me) = Cc1cccc(C[C@H](N)C(=O)O)c1; βAsp = O=C(O)[C@H](CC(=O)[*:2])N[*:1]; NH(CH2)12COOH = O=C(O)CCCCCCCCCCCCN*; Val(3-OH) = CC(C)(O)[C@H](N)C(=O)O; hArg = N=C(N)NCCCC[C@H](N)C(=O)O; Cha = N[C@@H](CC1CCCCC1)C(=O)O; Cit = NC(=O)NCCC[C@H](N)C(=O)O; Thr(3ξ) = CC(O)[C@H](N)C(=O)O; PEG4 = NCCOCCOCCOCCOCCC(=O)O; 12Ado = NCCCCCCCCCCCC(=O)O; Carboxymethyl = O=C(O)C*; Orn = NCCC[C@H](N)C(=O)O; Aun = NCCCCCCCCCCC(=O)O; Dab = NCC[C@H](N)C(=O)O; Nva = CCC[C@H](N)C(=O)O; Abu = CC[C@H](N)C(=O)O; Dap = NC[C@H](N)C(=O)O; AEEA = NCCOCCOCC(=O)O

These molecules were tested against T1, PD-1/PD-L1 interaction (PE-labeled human PD-L1-Ig binding to Jurkat cell line over-expressing human PD-1) (Homo sapiens, UniProt Q15116) (assay: Jurkat-PD-1 Cell Binding High-Content Screening Assay (CBA)). Settings: Jurkat cell line over-expressing human PD-1; PE-labeled PD-L1-Ig 20 nM final; read-out: Jurkat hPD1-PDL1 IC50.
T1 construct: expressed in transfected cells; host or cells: Jurkat
Format: cell-based
Method in brief: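 Jurkat cells over-expressing human PD-1 (8×10^3 per well, DMEM/10% FCS) preincubated with compound 2 h at 37° C, then PE-labeled human PD-L1-Ig (20 nM final) added for 1 h. Cells fixed with paraformaldehyde, Hoechst-stained, and bound fluorescence quantified by high-content imaging.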

T1 sequence (Q15116 25-288): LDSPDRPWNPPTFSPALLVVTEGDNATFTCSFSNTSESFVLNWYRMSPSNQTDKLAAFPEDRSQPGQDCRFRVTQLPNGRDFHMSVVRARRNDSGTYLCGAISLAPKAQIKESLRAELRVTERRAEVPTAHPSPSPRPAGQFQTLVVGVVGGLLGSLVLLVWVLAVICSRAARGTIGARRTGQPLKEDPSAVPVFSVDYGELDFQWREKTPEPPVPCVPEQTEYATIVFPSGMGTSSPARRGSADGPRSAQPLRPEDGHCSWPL

IC50 [µM] | Compound
0.01 | CC(C)C[C@H]1NC(=O)[C@H](CCCN)NC(=O)[C@H](C(C)C)NC(=O)[C@H](Cc2ccc(-c3ccccc3)cc2)NC(=O)[C@H](C(C)C)NC(=O)[C@H](Cc2c[nH]c3ccccc23)NC(=O)[C@H](CC(=O)O)NC(=O)[C@H](Cc2ccc(OCC(=O)O)cc2)NC(=O)[C@H](CCCCNC(=N)N)NC(=O)CSC[C@@H](C(=O)N[C@@H](CC(N)=O)C(=O)NCCOCCOCC(=O)N[C@@H](CCCCN)C(=O)NCCCCCCCCCCC(=O)O)NC(=O)[C@H](C(C)O)NC(=O)[C@H](C(C)C)NC(=O)[C@H](CC2CCCCC2)NC(=O)[C@H](CCN)NC1=O (stereo partly drawn) [Compound 3026] ({CH2CO}-[hArg]Y(Carboxymethyl)DWV[Bip]V[Orn][dL][Dab][Cha]V[Thr(3ξ)]CN[AEEA]K[Aun]-OH; thioether N-14)
0.0209 | Cc1cccc(C[C@@H]2NC(=O)[C@H](CC(=O)O)NC(=O)[C@H](Cc3ccc(OCC(=O)O)cc3)NC(=O)[C@H](Cc3ccc(OCC(=O)O)cc3)NC(=O)CSC[C@@H](C(=O)NCC(=O)N[C@@H](CCN)C(=O)NCC(=O)NCCCCCCCCCCC(=O)O)NC(=O)[C@H](CO)NC(=O)[C@H](C(C)C)NC(=O)[C@H](CC3CCCCC3)NC(=O)[C@H](CCN)NC(=O)[C@@H](CC(C)C)NC(=O)[C@H](CCCN)NC(=O)[C@H](C(C)C)NC(=O)[C@H](Cc3ccc(-c4ccccc4)cc3)NC(=O)[C@H](CC(C)C)NC2=O)c1 [Compound 1050] ({CH2CO}-Y(Carboxymethyl)Y(Carboxymethyl)D[Phe(3-Me)]L[Bip]V[Orn][dL][Dab][Cha]VSCG[Dab]G[Aun]-OH; thioether N-14)
0.0049 | Cc1cccc(C[C@@H]2NC(=O)[C@H](CC(=O)O)NC(=O)[C@H](Cc3ccc(OCC(=O)O)cc3)NC(=O)[C@H](CCN)NC(=O)CSC[C@@H](C(=O)N[C@@H](CCCCN)C(=O)NCCCCCCCCCCC(=O)O)NC(=O)[C@H](CCCCN)NC(=O)[C@H](C(C)O)NC(=O)[C@H](CC3CCCCC3)NC(=O)[C@H](CCN)NC(=O)[C@@H](CC(C)C)NC(=O)[C@H](CCCN)NC(=O)[C@H](Cc3ccc(O)cc3)NC(=O)[C@H](Cc3ccc(-c4ccccc4)cc3)NC(=O)[C@H](C(C)C)NC2=O)c1 (stereo partly drawn) [Compound 3599] ({CH2CO}-[Dab]Y(Carboxymethyl)D[Phe(3-Me)]V[Bip]Y[Orn][dL][Dab][Cha][Thr(3ξ)]KCK[Aun]-OH; thioether N-14)
0.0846 | Cc1cccc(C[C@@H]2NC(=O)[C@H](CC(=O)O)NC(=O)[C@H](Cc3ccc(O)cc3)NC(=O)[C@H](CC(N)=O)NC(=O)CSC[C@@H](C(=O)N[C@@H](CCCCN)C(=O)NCCCCCCCCCCC(=O)O)NC(=O)[C@H](CN)NC(=O)[C@H](C(C)C)NC(=O)[C@H](CC(C)C)NC(=O)[C@H](CCN)NC(=O)[C@@H](CC(C)C)NC(=O)[C@H](CCCN)NC(=O)[C@H](CCCNC(N)=O)NC(=O)[C@H](Cc3ccc(-c4ccccc4)cc3)NC(=O)[C@H](C(C)C)NC2=O)c1 [Compound 2800] ({CH2CO}-NYD[Phe(3-Me)]V[Bip][Cit][Orn][dL][Dab]LV[Dap]CK[Aun]-OH; thioether N-14)
0.0151 | Cc1cccc(C[C@@H]2NC(=O)[C@H](CC(=O)O)NC(=O)[C@H](Cc3ccc(OCC(=O)O)cc3)NC(=O)[C@H](CN)NC(=O)CSC[C@@H](C(=O)N[C@@H](CCN)C(=O)NCCCCCCCCCCC(=O)O)NC(=O)[C@H](CO)NC(=O)[C@H](Cc3cnc[nH]3)NC(=O)[C@H](CC3CCCCC3)NC(=O)[C@H](CCN)NC(=O)[C@@H](CC(C)C)NC(=O)[C@H](CCCN)NC(=O)[C@H](Cc3ccc(OCC(=O)O)cc3)NC(=O)[C@H](Cc3ccc(-c4ccccc4)cc3)NC(=O)[C@H](Cc3ccc(OCC(=O)O)cc3)NC2=O)c1 [Compound 3696] ({CH2CO}-[Dap]Y(Carboxymethyl)D[Phe(3-Me)]Y(Carboxymethyl)[Bip]Y(Carboxymethyl)[Orn][dL][Dab][Cha]HSC[Dab][Aun]-OH; thioether N-14)
0.0131 | Cc1cccc(C[C@@H]2NC(=O)[C@H](CC(=O)O)NC(=O)[C@H](Cc3ccc(OCC(=O)O)cc3)NC(=O)[C@H](Cc3ccc(C(N)=O)cc3)NC(=O)CSC[C@@H](C(=O)N[C@@H](CCN)C(=O)NCCCCCCCCCCC(=O)O)NC(=O)[C@H]([C@@H](C)O)NC(=O)[C@H](C(C)C)NC(=O)[C@H](CC3CCCCC3)NC(=O)[C@H](CCN)NC(=O)[C@@H](CC(C)C)NC(=O)[C@H](CCCN)NC(=O)[C@H](CCCNC(N)=O)NC(=O)[C@H](Cc3ccc(-c4ccccc4)cc3)NC(=O)[C@H](C(C)C)NC2=O)c1 [Compound 2827] ({CH2CO}-[Phe(4-CONH2)]Y(Carboxymethyl)D[Phe(3-Me)]V[Bip][Cit][Orn][dL][Dab][Cha]VTC[Dab][Aun]-OH; thioether N-14)
0.0171 | Cc1cccc(C[C@@H]2NC(=O)[C@H](CC(=O)O)NC(=O)[C@H](Cc3ccc(OCC(=O)O)cc3)NC(=O)[C@H](CN)NC(=O)CSC[C@@H](C(=O)N[C@@H](CCC(=O)O)C(=O)NCCCCCCCCCCC(=O)O)NC(=O)[C@H]([C@@H](C)O)NC(=O)[C@H](C(C)C)NC(=O)[C@H](CC3CCCCC3)NC(=O)[C@H](CCN)NC(=O)[C@@H](CC(C)C)NC(=O)[C@H](CCCN)NC(=O)[C@H](CCCNC(N)=O)NC(=O)[C@H](Cc3ccc(-c4ccccc4)cc3)NC(=O)[C@H](C(C)C)NC2=O)c1 [Compound 1027] ({CH2CO}-[Dap]Y(Carboxymethyl)D[Phe(3-Me)]V[Bip][Cit][Orn][dL][Dab][Cha]VTCE[Aun]-OH; thioether N-14)
0.0524 | CCC[C@@H]1NC(=O)CSC[C@@H](C(=O)N[C@@H](CCN)C(=O)NCCOCCOCCOCCOCCC(=O)NCCCCCCCCCCCCC(=O)O)NC(=O)[C@H](Cc2c[nH]cn2)NC(=O)[C@H](C(C)(C)O)NC(=O)[C@H](CC2CCCCC2)NC(=O)[C@H](CCN)NC(=O)[C@@H](CC(C)C)NC(=O)[C@H](CCCN)NC(=O)[C@H](Cc2ccc(C(=O)O)cc2)NC(=O)[C@H](Cc2ccc(-c3ccccc3)cc2)NC(=O)[C@H](Cc2ccc(C(=O)O)cc2)NC(=O)[C@H](Cc2cccc(C(F)(F)F)c2)NC(=O)[C@H](CC(=O)O)NC(=O)[C@H](Cc2ccc(OCC(=O)O)cc2)NC1=O [Compound 2950] ({CH2CO}-[Nva]Y(Carboxymethyl)D[Phe(3-CF3)][Phe(4-COOH)][Bip][Phe(4-COOH)][Orn][dL][Dab][Cha][Val(3-OH)]HC[Dab][PEG4]-{NH(CH2)12COOH}; thioether N-14)
0.008 | CC[C@@H]1NC(=O)CSC[C@@H](C(=O)N[C@@H](CCN)C(=O)NCCCCCCCCCCC(=O)O)NC(=O)[C@H](CO)NC(=O)[C@H](C(C)(C)O)NC(=O)[C@H](CC2CCCCC2)NC(=O)[C@H](CCN)NC(=O)[C@@H](CC(C)C)NC(=O)[C@H](CCCN)NC(=O)[C@H](Cc2ccc(OCC(=O)O)cc2)NC(=O)[C@H](Cc2ccc(-c3ccccc3)cc2)NC(=O)[C@H](Cc2ccc(OCC(=O)O)cc2)NC(=O)[C@H](Cc2cccc(C)c2)NC(=O)[C@H](CC(=O)O)NC(=O)[C@H](Cc2ccc(OCC(=O)O)cc2)NC1=O [Compound 2214] ({CH2CO}-[Abu]Y(Carboxymethyl)D[Phe(3-Me)]Y(Carboxymethyl)[Bip]Y(Carboxymethyl)[Orn][dL][Dab][Cha][Val(3-OH)]SC[Dab][Aun]-OH; thioether N-14)
0.147 | CC(C)C[C@H]1NC(=O)[C@H](CCCN)NC(=O)[C@H](C(C)C)NC(=O)[C@H](Cc2ccc(-c3ccccc3)cc2)NC(=O)[C@H](C(C)C)NC(=O)[C@H](Cc2cc(F)c(O)c(F)c2)NC(=O)[C@H](CC(=O)O)NC(=O)[C@H](Cc2ccc(OCC(=O)O)cc2)NC(=O)[C@H](CN)NC(=O)CSC[C@@H](C(=O)N[C@@H](CCN)C(=O)NCCCCCCCCCCC(=O)O)NC(=O)[C@H](CCCCN)NC(=O)[C@H](C(C)C)NC(=O)[C@H](CC2CCCCC2)NC(=O)[C@H](CCN)NC1=O [Compound 2032] ({CH2CO}-[Dap]Y(Carboxymethyl)D[Tyr(3,5-F2)]V[Bip]V[Orn][dL][Dab][Cha]VKC[Dab][Aun]-OH; thioether N-14)
0.0127 | CC(C)C[C@H]1NC(=O)[C@H](CCCN)NC(=O)[C@H](C(C)C)NC(=O)[C@H](Cc2ccc(-c3ccccc3)cc2)NC(=O)[C@H](C(C)C)NC(=O)[C@H](Cc2c[nH]c3ccccc23)NC(=O)[C@H](CC(=O)O)NC(=O)[C@H](Cc2ccc(OCC(=O)O)cc2)NC(=O)[C@H](C(C)O)NC(=O)CSC[C@@H](C(=O)NCCOCCOCC(=O)N[C@@H](CC(=O)NCCCCCCCCCCCC(=O)O)C(=O)O)NC(=O)[C@H](CO)NC(=O)[C@H](C(C)C)NC(=O)[C@H](CC2CCCCC2)NC(=O)[C@H](CCN)NC1=O (stereo partly drawn) [Compound 3041] ({CH2CO}-[Thr(3ξ)]Y(Carboxymethyl)DWV[Bip]V[Orn][dL][Dab][Cha]VSC[AEEA][βAsp][12Ado]-OH; thioether N-14)
0.0072 | CC(C)C[C@H]1NC(=O)[C@H](CCCN)NC(=O)[C@H](C(C)C)NC(=O)[C@H](Cc2ccc(-c3ccccc3)cc2)NC(=O)[C@H](C(C)C)NC(=O)[C@H](Cc2ccc(O)c(F)c2)NC(=O)[C@H](CC(=O)O)NC(=O)[C@H](Cc2ccc(OCC(=O)O)cc2)NC(=O)[C@H](CN)NC(=O)CSC[C@@H](C(=O)N[C@@H](CCN)C(=O)NCCCCCCCCCCC(=O)O)NC(=O)[C@H](CCCCN)NC(=O)[C@H](C(C)C)NC(=O)[C@H](CC2CCCCC2)NC(=O)[C@H](CCN)NC1=O [Compound 2030] ({CH2CO}-[Dap]Y(Carboxymethyl)D[Tyr(3-F)]V[Bip]V[Orn][dL][Dab][Cha]VKC[Dab][Aun]-OH; thioether N-14)
0.0108 | Cc1cccc(C[C@@H]2NC(=O)[C@H](CC(=O)O)NC(=O)[C@H](Cc3ccc(OCC(=O)O)cc3)NC(=O)[C@H](CN)NC(=O)CSC[C@@H](C(=O)N[C@@H](CC(=O)NCCCCCCCCCCC(=O)O)C(=O)O)NC(=O)[C@H]([C@@H](C)O)NC(=O)[C@H](C(C)C)NC(=O)[C@H](CC3CCCCC3)NC(=O)[C@H](CCN)NC(=O)[C@@H](CC(C)C)NC(=O)[C@H](CCCN)NC(=O)[C@H](CCCNC(N)=O)NC(=O)[C@H](Cc3ccc(-c4ccccc4)cc3)NC(=O)[C@H](C(C)C)NC2=O)c1 [Compound 1025] ({CH2CO}-[Dap]Y(Carboxymethyl)D[Phe(3-Me)]V[Bip][Cit][Orn][dL][Dab][Cha]VTC[βAsp][Aun]-OH; thioether N-14)
